Data from patent US9216173B2, “2-Pyridyl carboxamide-containing spleen tyrosine kinase (SYK) inhibitors” (Merck Sharp & Dohme Corp., priority 2011, dated 2015).

test system: not given; experiment: not given; settings: phase II clinical trial, allergic rhinitis; cited from earlier work

SMILES | efficacy versus placebo
Oc1cccc(Nc2ncc(F)c(Nc3cccc(O)c3)n2)c1 [Example R112] | lack of efficacy

test system: PGD2; experiment: not given; settings: dosed intranasally, phase I/II, allergic rhinitis; cited from earlier work

SMILES | PGD2 level | clinical safety
Oc1cccc(Nc2ncc(F)c(Nc3cccc(O)c3)n2)c1 [Example R112] | statistically significant decrease | safe across a range of indicators

molecular target: T1, recombinant human GST-SYK (Homo sapiens, UniProt P43405); experiment: Homogeneous Time-Resolved Fluorescence (HTRF) assay for the recombinant human Syk enzyme; assay type: biochemical; settings: GST-hSYK 5 pM, ATP 25 μM, 10-dose titration 10 μM to 0.508 nM; read-out: IC50
T1 construct: purchased Carna Biosciences 08-176
Method in brief: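 GST-hSYK fusion phosphorylates a peptide for 45 min at room temperature. Quenched with EDTA buffer containing 2 nM Eu-anti-phosphotyrosine antibody and 70 nM SA-APC. HTRF signal read after 30 min.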

IC50 [nM] | SMILES
63 | Cn1ccc(Nc2cc(N[C@H]3[C@@H](N)CCCC3(F)F)cnc2C(N)=O)n1 [Example 1.86, 5-{[(1S,6S)-6-amino-2,2-difluorocyclohexyl]amino}-3-[(1-methyl-1H-pyrazol-3-yl)amino]pyridine-2-carboxamide]

same assay, conditions: GST-hSYK 5 pM, ATP 25 μM, 10-dose titration 10 μM to 0.508 nM; read-out: rhSYK Activity (IC50 rating)

IC50 [nM] | SMILES
< 10 | NC(=O)c1ncc(N[C@@H]2CCCC[C@@H]2N)cc1Nc1cccc(C2CC2)n1 [Example 1.53, 5-{[(1R,2S)-2-aminocyclohexyl]amino}-3-[(6-cyclopropylpyridin-2-yl)amino]pyridine-2-carboxamide]
< 10 | Cc1ccc(-n2ccc(Nc3cc(N[C@@H]4CCCC[C@@H]4N)cnc3C(N)=O)n2)cc1 [Example 1.64, 5-{[(1R,2S)-2-aminocyclohexyl]amino}-3-{[1-(4-methylphenyl)-1H-pyrazol-3-yl]amino}pyridine-2-carboxamide]
10 to 100 | Cc1cc(O)cc(Nc2cc(N[C@@H]3CCCC[C@@H]3N)cnc2C(N)=O)n1 [Example 11, 5-{[(1R,2S)-2-aminocyclohexyl]amino}-3-[(4-hydroxy-6-methylpyridin-2-yl)amino]pyridine-2-carboxamide]
10 to 100 | Cn1ncc(Nc2cc(N[C@@H]3CCCC[C@@H]3N)cnc2C(N)=O)n1 [Example 1.62, 5-{[(1R,2S)-2-aminocyclohexyl]amino}-3-[(2-methyl-2H-1,2,3-triazol-4-yl)amino]pyridine-2-carboxamide]
< 10 | Cc1nc(Nc2cc(N[C@@H]3CCCC[C@@H]3N)cnc2C(N)=O)ccc1C(N)=O [Example 7, 5-{[(1R,2S)-2-aminocyclohexyl]amino}-3-[(5-carbamoyl-6-methylpyridin-2-yl)amino]pyridine-2-carboxamide]
< 10 | CCc1cccc(Nc2cc(NC[C@H](C)N)cnc2C(N)=O)n1 [Example 1.94, 5-{[(2S)-2-aminopropyl]amino}-3-[(6-ethylpyridin-2-yl)amino]pyridine-2-carboxamide]
< 10 | NC(=O)c1ncc(N[C@@H]2CCCC[C@@H]2N)cc1Nc1cnn(-c2ccccc2)n1 [Example 1.51, 5-{[(1R,2S)-2-aminocyclohexyl]amino}-3-[(2-phenyl-2H-1,2,3-triazol-4-yl)amino]pyridine-2-carboxamide]
10 to 100 | Cn1ccc(Nc2cc(N[C@H]3[C@@H](N)CCCC3(F)F)cnc2C(N)=O)n1 [Example 1.86, 5-{[(1S,6S)-6-amino-2,2-difluorocyclohexyl]amino}-3-[(1-methyl-1H-pyrazol-3-yl)amino]pyridine-2-carboxamide]
< 10 | CCc1cccc(Nc2cc(NC[C@@H](N)COC)cnc2C(N)=O)n1 [Example 1.100, 5-{[(2R)-2-amino-3-methoxypropyl]amino}-3-[(6-ethylpyridin-2-yl)amino]pyridine-2-carboxamide]

More lines, now with the values behind:

SMILES | IC50 [nM]
CCc1cccc(Nc2cc(N[C@H]3[C@@H](N)CCCC3(F)F)cnc2C(N)=O)n1 [Example 1.88, 5-{[(1S,6S)-6-amino-2,2-difluorocyclohexyl]amino}-3-[(6-ethylpyridin-2-yl)amino]pyridine-2-carboxamide] | < 10
Cc1cc(Nc2cc(N[C@@H]3CCCC[C@@H]3N)cnc2C(N)=O)nc(-c2cnn3c2CCCC3)c1 [Example 1.113, 5-{[(1R,2S)-2-aminocyclohexyl]amino}-3-{[4-methyl-6-(4,5,6,7-tetrahydropyrazolo[1,5-a]pyridin-3-yl)pyridin-2-yl]amino}pyridine-2-carboxamide] | < 10
Cc1cc(-c2ccnn2C)cc(Nc2cc(N[C@@H]3CCCC[C@@H]3N)cnc2C(N)=O)n1 [Example 4.4, 5-{[(1R,2S)-2-aminocyclohexyl]amino}-3-{[6-methyl-4-(1-methyl-1H-pyrazol-5-yl)pyridin-2-yl]amino}pyridine-2-carboxamide] | < 10
Cc1nc(Nc2cc(N[C@@H]3CCCC[C@@H]3N)cnc2C(N)=O)ccc1-c1cccc(-n2nccn2)c1 [Example 3.20, 5-{[(1R,2S)-2-aminocyclohexyl]amino}-3-({6-methyl-5-[3-(2H-1,2,3-triazol-2-yl)phenyl]pyridin-2-yl}amino)pyridine-2-carboxamide] | < 10
Cc1nc(Nc2cc(N[C@@H]3CCCC[C@@H]3N)cnc2C(N)=O)ccc1OC(C)C [Example 5.1, 5-{[(1R,1S)-2-aminocyclohexyl]amino}-3-{[6-methyl-5-(propan-2-yloxy)pyridin-2-yl]amino}pyridine-2-carboxamide] | < 10
COc1ncccc1-c1ccc(Nc2cc(N[C@@H]3CCCC[C@@H]3N)cnc2C(N)=O)nc1C [Example 3.26, 5-{[(1R,2S)-2-aminocyclohexyl]amino}-3-[(2′-methoxy-2-methyl-3,3′-bipyridin-6-yl)amino]pyridine-2-carboxamide] | < 10
NC(=O)c1ncc(N[C@H]2[C@@H](N)CCCC2(F)F)cc1Nc1cccc(C(F)(F)F)n1 [Example 1.106, 5-{[(1S,6S)-6-amino-2,2-difluorocyclohexyl]amino}-3-{[6-(trifluoromethyl)pyridin-2-yl]amino}pyridine-2-carboxamide] | < 10
CCC(CN)Nc1cnc(C(N)=O)c(Nc2cccc(-n3nccn3)n2)c1 (stereo not shown) [Example 1.85, 5-{[1-(aminomethyl)propyl]amino}-3-{[6-(2H-1,2,3-triazol-2-yl)pyridin-2-yl]amino}pyridine-2-carboxanmle] | < 10
CCc1cccc(Nc2cc(N[C@@H]3CCCC[C@@H]3N)cnc2C(N)=O)n1 [Example 13, 5-{[(1R,2S)-2-aminocyclohexyl]amino}-3-[(6-ethylpyridin-2-yl)amino]pyridine-2-carboxamide] | < 10
Cc1cc(-c2cccnc2)cc(Nc2cc(N[C@@H]3CCCC[C@@H]3N)cnc2C(N)=O)n1 [Example 4.2, 5-{[(1R,2S)-2-aminocyclohexyl]amino}-3-[(6′-methyl-3,4′-bipyridin-2′-yl)amino]pyridine-2-carboxamide] | < 10
NC(=O)c1ncc(N[C@@H]2CCCC[C@@H]2N)cc1Nc1cccc(-c2ccccn2)n1 [Example 1.42, 5-{[(1R,2S)-2-aminocyclohexyl]amino}-3-(2,2′-bipyridin-6-ylamino)pyridine-2-carboxamide] | < 10
Cc1cc(Nc2cc(N[C@@H]3CCCC[C@@H]3N)cnc2C(N)=O)nc(-c2cnn3c2CCC3)c1 [Example 1.115, 5-{[(1R,2S)-2-aminocyclohexyl]amino}-3-{[6-(5,6-dihydro-4H-pyrrolo[1,2-b]pyrazol-3-yl)-4-methylpyridin-2-yl]amino}pyridine-2-carboxamide] | < 10
Cc1cc(C(=O)N(C)C)cc(Nc2cc(N[C@@H]3CCCC[C@@H]3N)cnc2C(N)=O)n1 [Example 1.59, 5-{[(1R,2S)-2-aminocyclohexyl]amino}-3-{[4-(dimethylcarbamoyl)-6-methylpyridin-2-yl]amino}pyridine-2-carboxamide] | 10 to 100
Cc1cc(C)nc(Nc2cc(N[C@H]3CCC[C@H]3N)cnc2C(N)=O)c1 (single isomer, unassigned) [Example 1.25] | 10 to 100
Cc1cc(C)nc(Nc2cc(NC(C)CN)cnc2C(N)=O)c1 (stereo not shown) [Example 1.30, 5-[(2-amino-1-methylethyl)amino]-3-[(4,6-dimethylpyridin-2-yl)amino]pyridine-2-carboxamide] | < 10
